Data taken from ChEMBL document CHEMBL6074667, “Discovery and Optimization of First-in-Class Molecular Glue Degraders of the WIZ Transcription Factor for Fetal Hemoglobin Induction to Treat Sickle Cell Disease” (J Med Chem, 2024).
Converted amounts (≈) assume the structure as drawn.

Legend:
[1] = Solubility of compound in potassium phosphate buffer at pH 6.8 incubated for 16 to 24 hrs by high-throughput Agilent Rapidfire-MS/MS analysis; format: physicochemical; settings: time 16-24 hrs
[2] = Apparent permeability across apical to basolateral side in low efflux MDCK cells at 10 uM incubated for 2 hrs by LC-MS analysis; format: ADME, cell-based, Canis lupus familiaris; settings: dog
[3] = Apparent permeability across apical to basolateral side in low efflux MDCK cells assessed as drug recovery at 10 uM incubated for 2 hrs by LC-MS analysis; format: ADME, cell-based, Canis lupus familiaris; settings: dog, read-out: Drug recovery
[4] = Intrinsic clearance in mouse liver microsomes; format: ADME, Microsome; settings: read-out: CLH
[5] = Intrinsic clearance in rat liver microsomes; format: ADME, Microsome; settings: read-out: CLH
[6] = Intrinsic clearance in human liver microsomes; format: ADME, Microsome; settings: read-out: CLH
[7] = Protein binding in mouse plasma; format: ADME, cell-free; settings: read-out: PPB (converted)
[8] = Protein binding in rat plasma; format: ADME, cell-free; settings: read-out: PPB (converted)
[9] = Protein binding in human plasma; format: ADME, cell-free; settings: read-out: PPB (converted)
[10] = Half-life in C57BL/6 mouse at 1 mg/kg, iv; format: ADME, organism-based; settings: in vivo
[11] = Clearance in C57BL/6 mouse at 1 mg/kg, iv; format: ADME, organism-based; settings: in vivo
[12] = Volume of distribution at steady state in C57BL/6 mouse at 1 mg/kg, iv; format: ADME, organism-based; settings: in vivo, read-out: Vdss
[13] = AUClast in C57BL/6 mouse at 3 mg/kg, po; format: ADME, organism-based; settings: in vivo
[14] = Cmax in C57BL/6 mouse at 3 mg/kg, po; format: ADME, organism-based; settings: in vivo
[15] = Tmax in C57BL/6 mouse at 3 mg/kg, po or 1 mg/kg, iv; format: ADME, organism-based; settings: in vivo
[16] = Bioavailability last in C57BL/6 mouse; format: ADME, organism-based; settings: in vivo
[17] = target: T1, Protein cereblon/Protein Wiz (Homo sapiens, UniProt Q96SW2+O95785); assay: Molecular glue activity at CRBN/HiBiT-tagged WIZ (unknown origin) expressed in HEK293T cells assessed as induction of WIZ degradation incubated for 18 hrs by Nano-Glo HiBiT-Lytic reagent based luminescence plate reader analysis relative to control; format: cell-based; design: concentration or dose not given beside the values
T1 sequence (O95785 whole entry, looked up): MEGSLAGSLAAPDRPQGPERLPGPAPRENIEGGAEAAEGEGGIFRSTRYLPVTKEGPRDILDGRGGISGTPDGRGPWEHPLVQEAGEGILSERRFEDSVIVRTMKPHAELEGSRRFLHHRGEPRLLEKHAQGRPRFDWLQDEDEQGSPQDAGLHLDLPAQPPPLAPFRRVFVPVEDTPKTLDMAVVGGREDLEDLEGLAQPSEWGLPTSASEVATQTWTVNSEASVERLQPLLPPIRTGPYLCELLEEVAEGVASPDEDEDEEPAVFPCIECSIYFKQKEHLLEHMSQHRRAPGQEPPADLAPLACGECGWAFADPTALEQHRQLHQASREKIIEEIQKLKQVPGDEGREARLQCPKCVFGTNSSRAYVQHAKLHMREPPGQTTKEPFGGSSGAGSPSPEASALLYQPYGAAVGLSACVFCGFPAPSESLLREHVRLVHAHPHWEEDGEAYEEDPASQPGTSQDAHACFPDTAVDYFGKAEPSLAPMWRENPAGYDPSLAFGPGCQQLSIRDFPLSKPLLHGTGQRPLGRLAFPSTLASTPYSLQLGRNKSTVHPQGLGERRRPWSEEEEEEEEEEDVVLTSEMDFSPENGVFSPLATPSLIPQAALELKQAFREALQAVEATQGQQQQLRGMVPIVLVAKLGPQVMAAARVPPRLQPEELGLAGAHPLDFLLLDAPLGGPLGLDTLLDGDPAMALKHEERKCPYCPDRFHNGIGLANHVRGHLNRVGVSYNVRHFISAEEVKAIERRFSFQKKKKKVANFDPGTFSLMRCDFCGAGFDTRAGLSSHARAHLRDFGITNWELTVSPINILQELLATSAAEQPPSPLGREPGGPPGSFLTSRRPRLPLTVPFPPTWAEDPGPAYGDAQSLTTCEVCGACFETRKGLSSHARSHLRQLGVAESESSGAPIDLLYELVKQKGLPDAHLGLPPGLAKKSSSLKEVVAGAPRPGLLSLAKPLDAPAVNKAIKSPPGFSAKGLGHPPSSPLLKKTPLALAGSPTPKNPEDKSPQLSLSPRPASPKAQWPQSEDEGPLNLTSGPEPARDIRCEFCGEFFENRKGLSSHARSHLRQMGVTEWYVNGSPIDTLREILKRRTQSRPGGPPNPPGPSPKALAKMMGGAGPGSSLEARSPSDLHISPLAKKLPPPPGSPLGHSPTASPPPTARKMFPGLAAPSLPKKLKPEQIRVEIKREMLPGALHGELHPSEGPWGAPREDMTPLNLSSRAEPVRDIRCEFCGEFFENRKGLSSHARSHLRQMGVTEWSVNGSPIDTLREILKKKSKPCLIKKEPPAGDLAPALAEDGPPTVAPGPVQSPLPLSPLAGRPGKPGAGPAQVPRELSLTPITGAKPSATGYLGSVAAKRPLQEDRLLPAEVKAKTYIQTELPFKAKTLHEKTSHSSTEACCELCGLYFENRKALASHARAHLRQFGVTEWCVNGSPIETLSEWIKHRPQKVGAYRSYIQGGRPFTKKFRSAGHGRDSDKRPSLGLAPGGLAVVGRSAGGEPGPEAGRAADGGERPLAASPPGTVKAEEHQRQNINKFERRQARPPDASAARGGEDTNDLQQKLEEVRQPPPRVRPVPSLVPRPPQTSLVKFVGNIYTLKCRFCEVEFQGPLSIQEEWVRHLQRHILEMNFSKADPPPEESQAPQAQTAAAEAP
T1 sequence (Q96SW2 whole entry, looked up): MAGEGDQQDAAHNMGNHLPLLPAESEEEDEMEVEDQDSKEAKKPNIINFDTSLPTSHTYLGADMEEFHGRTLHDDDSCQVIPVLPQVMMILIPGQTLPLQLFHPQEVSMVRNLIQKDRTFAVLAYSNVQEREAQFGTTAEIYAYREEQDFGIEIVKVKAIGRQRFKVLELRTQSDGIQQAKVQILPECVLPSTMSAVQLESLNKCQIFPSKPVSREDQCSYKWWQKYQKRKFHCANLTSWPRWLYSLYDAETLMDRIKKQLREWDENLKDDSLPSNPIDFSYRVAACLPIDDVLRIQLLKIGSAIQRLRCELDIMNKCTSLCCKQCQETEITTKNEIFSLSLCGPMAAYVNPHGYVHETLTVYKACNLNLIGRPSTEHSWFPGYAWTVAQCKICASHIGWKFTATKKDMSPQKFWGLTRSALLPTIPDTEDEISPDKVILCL

[18] = target: T2, Protein cereblon/Sal-like protein 4 (Homo sapiens, UniProt Q96SW2+Q9UJQ4); assay: Molecular glue activity at CRBN/HiBiT-tagged SALL4 (unknown origin) expressed in human GripTite 293 MSR cells assessed as induction of SALL4 degradation incubated for 20 hrs by Nano-Glo HiBiT-Lytic reagent based luminescence plate reader analysis; format: cell-based
Target sequence in this assay (Q96SW2 whole entry): as the sequence (Q96SW2 whole entry, looked up) above
Target sequence in this assay (Q9UJQ4 whole entry): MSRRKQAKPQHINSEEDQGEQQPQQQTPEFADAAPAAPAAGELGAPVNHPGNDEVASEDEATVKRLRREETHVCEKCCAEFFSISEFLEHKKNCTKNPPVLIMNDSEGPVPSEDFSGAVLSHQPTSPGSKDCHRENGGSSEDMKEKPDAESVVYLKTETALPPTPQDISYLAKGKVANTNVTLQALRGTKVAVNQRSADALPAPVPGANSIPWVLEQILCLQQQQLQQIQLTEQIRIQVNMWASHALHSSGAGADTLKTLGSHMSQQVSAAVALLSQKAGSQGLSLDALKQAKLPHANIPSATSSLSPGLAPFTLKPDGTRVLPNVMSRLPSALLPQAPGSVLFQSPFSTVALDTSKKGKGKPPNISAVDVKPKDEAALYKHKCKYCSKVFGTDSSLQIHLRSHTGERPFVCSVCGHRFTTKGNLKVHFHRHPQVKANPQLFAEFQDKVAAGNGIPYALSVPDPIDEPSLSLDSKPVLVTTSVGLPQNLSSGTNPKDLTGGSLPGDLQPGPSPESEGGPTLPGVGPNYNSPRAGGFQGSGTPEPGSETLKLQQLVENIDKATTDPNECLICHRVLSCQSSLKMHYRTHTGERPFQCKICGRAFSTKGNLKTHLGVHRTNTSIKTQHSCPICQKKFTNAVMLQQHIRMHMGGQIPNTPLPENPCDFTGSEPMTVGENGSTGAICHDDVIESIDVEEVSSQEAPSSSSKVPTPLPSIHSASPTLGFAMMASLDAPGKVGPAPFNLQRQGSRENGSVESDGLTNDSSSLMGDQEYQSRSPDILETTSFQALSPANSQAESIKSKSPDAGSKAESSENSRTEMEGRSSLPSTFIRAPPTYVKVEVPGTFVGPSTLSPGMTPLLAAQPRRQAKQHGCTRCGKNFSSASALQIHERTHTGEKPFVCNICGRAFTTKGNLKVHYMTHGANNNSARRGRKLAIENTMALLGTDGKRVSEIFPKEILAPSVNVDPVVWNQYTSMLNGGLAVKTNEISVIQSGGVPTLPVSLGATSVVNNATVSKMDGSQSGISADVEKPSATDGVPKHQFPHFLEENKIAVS

[19] = target: T2, Protein cereblon/Sal-like protein 4; assay: Molecular glue activity at CRBN/HiBiT-tagged SALL4 (unknown origin) expressed in human GripTite 293 MSR cells assessed as induction of SALL4 degradation incubated for 20 hrs by Nano-Glo HiBiT-Lytic reagent based luminescence plate reader analysis relative to control; format: cell-based; design: concentration or dose not given beside the values
Target sequence in this assay (Q96SW2 whole entry, looked up): as the sequence (Q96SW2 whole entry, looked up) above
Target sequence in this assay (Q9UJQ4 whole entry, looked up): as the sequence (Q9UJQ4 whole entry) above

Cereblon/Ikaros [20] = target: T3, Cereblon/Ikaros (Homo sapiens, UniProt Q96SW2+Q13422); assay: Molecular glue activity at CRBN/HiBiT-tagged IKZF1 (unknown origin) expressed in human GripTite 293 MSR cells assessed as induction of […] incubated for 20 hrs by Nano-Glo HiBiT-Lytic reagent based luminescence plate reader analysis; format: cell-based
T3 sequence (Q96SW2 whole entry): as the sequence (Q96SW2 whole entry, looked up) above
T3 sequence (Q13422 whole entry): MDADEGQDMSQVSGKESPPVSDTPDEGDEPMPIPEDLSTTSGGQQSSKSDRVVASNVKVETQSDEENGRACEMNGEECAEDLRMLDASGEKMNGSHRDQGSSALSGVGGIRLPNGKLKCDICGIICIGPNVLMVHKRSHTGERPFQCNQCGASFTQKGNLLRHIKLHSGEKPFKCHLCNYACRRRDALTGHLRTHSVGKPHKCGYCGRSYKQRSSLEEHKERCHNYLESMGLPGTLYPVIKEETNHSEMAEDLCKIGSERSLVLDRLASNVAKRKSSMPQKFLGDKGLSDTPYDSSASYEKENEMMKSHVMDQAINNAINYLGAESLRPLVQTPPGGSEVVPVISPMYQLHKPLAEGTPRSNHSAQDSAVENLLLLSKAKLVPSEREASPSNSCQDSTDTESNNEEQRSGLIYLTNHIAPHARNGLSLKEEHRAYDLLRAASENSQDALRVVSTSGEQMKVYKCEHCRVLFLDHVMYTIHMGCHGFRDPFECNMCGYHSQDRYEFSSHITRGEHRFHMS

Cereblon/Ikaros [21] = target: T3, Cereblon/Ikaros; assay: Molecular glue activity at CRBN/HiBiT-tagged IKZF1 (unknown origin) expressed in human GripTite 293 MSR cells assessed as induction of […] incubated for 20 hrs by Nano-Glo HiBiT-Lytic reagent based luminescence plate reader analysis relative to control; format: cell-based; design: concentration or dose not given beside the values
[22] = target: T4, Protein cereblon/Eukaryotic peptide chain release factor GTP-binding subunit ERF3A (Homo sapiens, UniProt Q96SW2+P15170); assay: Molecular glue activity at CRBN/HiBiT-tagged GSPT1 (unknown origin) expressed in human GripTite 293 MSR cells assessed as induction of GSPT1 degradation incubated for 20 hrs by Nano-Glo HiBiT-Lytic reagent based luminescence plate reader analysis; format: cell-based
Target sequence in this assay (Q96SW2 whole entry): as the sequence (Q96SW2 whole entry, looked up) above
Target sequence in this assay (P15170 whole entry): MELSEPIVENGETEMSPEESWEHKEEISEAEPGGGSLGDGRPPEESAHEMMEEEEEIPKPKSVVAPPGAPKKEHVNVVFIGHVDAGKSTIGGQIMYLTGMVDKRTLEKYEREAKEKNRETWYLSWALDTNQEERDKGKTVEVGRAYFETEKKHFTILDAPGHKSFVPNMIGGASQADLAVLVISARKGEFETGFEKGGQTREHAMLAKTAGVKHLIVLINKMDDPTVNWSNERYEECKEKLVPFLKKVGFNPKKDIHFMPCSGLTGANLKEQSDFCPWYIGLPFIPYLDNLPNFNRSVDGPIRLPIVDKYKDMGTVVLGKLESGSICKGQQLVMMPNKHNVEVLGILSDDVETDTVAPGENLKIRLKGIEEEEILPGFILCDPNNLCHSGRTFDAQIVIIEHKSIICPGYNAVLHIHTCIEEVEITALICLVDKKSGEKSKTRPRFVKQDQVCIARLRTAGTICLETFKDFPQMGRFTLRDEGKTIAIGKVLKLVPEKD

[23] = target: T4, Protein cereblon/Eukaryotic peptide chain release factor GTP-binding subunit ERF3A; assay: Molecular glue activity at CRBN/HiBiT-tagged GSPT1 (unknown origin) expressed in human GripTite 293 MSR cells assessed as induction of GSPT1 degradation incubated for 20 hrs by Nano-Glo HiBiT-Lytic reagent based luminescence plate reader analysis relative to control; format: cell-based; design: concentration or dose not given beside the values
Target sequence in this assay (P15170 whole entry, looked up): as the sequence (P15170 whole entry) above
Target sequence in this assay (Q96SW2 whole entry, looked up): as the sequence (Q96SW2 whole entry, looked up) above

[24] = target: T1, Protein cereblon/Protein Wiz; assay: Molecular glue activity at CRBN/WIZ in human CD34-positive derived primary erythroblast cells assessed as induction of WIZ degradation by measuring maximal efficacy measured after 24 hrs by flow cytometric analysis relative to control; format: cell-based
[25] = target: T1, Protein cereblon/Protein Wiz; assay: Molecular glue activity at CRBN/WIZ in human CD34-positive derived primary erythroblast cells assessed as increase in fetal hemoglobin positive cells in CD71+ CD235a+ subpopulation measured after 7 days by flow cytometric analysis relative to control; format: cell-based; settings: time 7.0 day
[26] = target: T1, Protein cereblon/Protein Wiz; assay: In vivo molecular glue activity at CRBN/WIZ in immunocompromised naive NBSGW mouse xenografted with human CD34 positive HSPC cells assessed as induction of WIZ degradation in peripheral blood human […] B cells administered orally once daily for 21 days by staining based analysis; format: functional, organism-based; settings: route po, time 21.0 day
[27] = target: T1, Protein cereblon/Protein Wiz; assay: In vivo molecular glue activity at CRBN/WIZ in immunocompromised naive NBSGW mouse xenografted with human CD34 positive HSPC cells assessed as induction of WIZ degradation in peripheral blood human C19-positive B cells by measuring maximal efficacy at 1 to 10 mg/kg, po administered once daily for 21 days by staining based analysis relative to control; format: functional, organism-based; settings: dose 1-10 mg/kg, time 21.0 day
[28] = target: T1, Protein cereblon/Protein Wiz; assay: In vivo molecular glue activity at CRBN/WIZ in immunocompromised naive NBSGW mouse xenografted with human CD34 positive HSPC cells assessed as fold increase in Hbf-positive cells in moCD45 negative hCD45negative CD71positive CD235A positive bone marrow cells at 1 to 10 mg/kg, po administered once daily for 21 days by staining based analysis; format: functional, organism-based; settings: dose 1-10 mg/kg, time 21.0 day
[29] = Toxicity in immunocompromised naive NBSGW mouse xenografted with human CD34 positive HSPC cells assessed as effect on body weight at 1 to 10 mg/kg, po administered once daily for 21 days; format: organism-based; settings: in vivo, 504 h, dose 1-10 mg/kg, time 21 day

Work on `CCN1CCCC[C@@H]1COc1ccc2c(c1)CN(C1CCC(=O)NC1=O)C2=O` (some centres undefined) yielded a solubility [1] of 450 µM (≈ 173 µg/mL), a Papp A→B at 2 h, 10 µM [2] of 1.1 ×10⁻⁶ cm/s and a recovery at 2 h, 10 µM [3] of 95%. The microsomal CLint [4] was under 25 µL/min/mg, the microsomal CLint [5] was under 25 µL/min/mg and the microsomal CLint [6] was under 25 µL/min/mg. The fraction unbound [7] was over 0.8, the fraction unbound [8] was over 0.8 and the fraction unbound [9] was over 0.8. It also gave a half-life [10] of 1.7 h, a clearance [11] of 22 mL/min/kg and a Vd [12] of 2.2 L/kg. For the same compound, the AUC(0-t) [13] was 0.713 µM·h, the Cmax [14] was 157 nM and the Tmax [15] was 2.3 h. It also gave a bioavailability [16] of 13%, an Activity [17] of 82% and a DC50 [18] of 3.8 µM. The Activity [19] was 50%, the DC50 (Cereblon/Ikaros [20]) was over 50 µM and the Activity (Cereblon/Ikaros [21]) was under 10%. It also gave a DC50 [22] of over 50 µM, an Activity [23] of under 10% and an Emax [24] of 74%. The Activity [25] was 20%, the Activity [26] was “Dose-dependent-effect” and the Emax [27] was 63%. The fold change (FC) [28] was 5 and the Activity [29] was “Non-toxic”.
